Columns and labels:
Experiment in all cases: relative viability (nuclei count vs DMSO), 5 days (fraction); higher = more cells survive
[1] = system: LC-2-ad
In short: (§1)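 Relative viability is defined as nuclei in treated wells over nuclei in vehicle wells. Duplicate plates were run and medians reported. Lung cancer cell lines in 1536-well plates were dosed by pin tool one day after seeding, with one drug or with a fixed anchor-drug dose plus five library-drug doses (not always all listed) in √10 steps, and nuclei were counted after 5 days.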

[2] = system: NCI-H2228
In short: as §1

[3] = system: NCI-H1734
In short: as §1

[4] = system: A-427
In short: as §1

[5] = system: RERF-LC-KJ
In short: as §1

[6] = system: HOP-62
In short: as §1

[7] = system: NCI-H1755
In short: as §1

[8] = system: NCI-H1915
In short: as §1

[9] = system: NCI-H2347
In short: as §1

[10] = system: HCC-15
In short: as §1

[11] = system: SW 1573
In short: as §1

[12] = system: SK-LU-1
In short: as §1

[13] = system: NCI-H2126
In short: as §1

[14] = system: NCI-H647
In short: as §1

[15] = system: PC-3 [JPC-3]
In short: as §1

[16] = system: HCC-78
In short: as §1

[17] = system: NCI-H1975
In short: as §1

[18] = system: NCI-H1792
In short: as §1

[19] = system: LXF-289
In short: as §1

O=c1cc(-c2cccc3c2Sc2ccccc2S3)oc(N2CCOCC2)c1 + CC(C)C[C@H](NC(=O)[C@H](Cc1ccccc1)NC(=O)c1cnccn1)B(O)O [Bortezomib] (partner 0.002 µM)
relative viability ([1]; first compound 0.08 µM): 0.989 | relative viability ([1]; first compound 0.253 µM): 0.827 | relative viability ([1]; first compound 0.8 µM): 1.06 | relative viability ([1]; first compound 2.53 µM): 1.02 | relative viability ([1]; first compound 8 µM): 1.07 | relative viability ([2]; first compound 0.08 µM): 0.965 | relative viability ([2]; first compound 0.253 µM): 1.16 | relative viability ([2]; first compound 0.8 µM): 1.19 | relative viability ([2]; first compound 2.53 µM): 0.982 | relative viability ([2]; first compound 8 µM): 1.23 | relative viability ([3]; first compound 0.08 µM): 0.865 | relative viability ([3]; first compound 0.253 µM): 1.06 | relative viability ([3]; first compound 0.8 µM): 1.05 | relative viability ([3]; first compound 2.53 µM): 0.844 | relative viability ([3]; first compound 8 µM): 1.18 | relative viability ([4]; first compound 0.08 µM): 1.09 | relative viability ([4]; first compound 0.253 µM): 0.977 | relative viability ([4]; first compound 0.8 µM): 0.999 | relative viability ([4]; first compound 2.53 µM): 0.931 | relative viability ([4]; first compound 8 µM): 1.03 | relative viability ([5]; first compound 0.08 µM): 1.04 | relative viability ([5]; first compound 0.253 µM): 1.36 | relative viability ([5]; first compound 0.8 µM): 1.22 | relative viability ([5]; first compound 2.53 µM): 1.09 | relative viability ([5]; first compound 8 µM): 1.02 | relative viability ([6]; first compound 0.08 µM): 0.734 | relative viability ([6]; first compound 0.253 µM): 1.27 | relative viability ([6]; first compound 0.8 µM): 0.735 | relative viability ([6]; first compound 2.53 µM): 0.713 | relative viability ([6]; first compound 8 µM): 1.08 | relative viability ([7]; first compound 0.08 µM): 0.973 | relative viability ([7]; first compound 0.253 µM): 1.09 | relative viability ([7]; first compound 0.8 µM): 1.01 | relative viability ([7]; first compound 2.53 µM): 1.01 | relative viability ([7]; first compound 8 µM): 0.941 | relative viability ([8]; first compound 0.08 µM): 1.07 | relative viability ([8]; first compound 0.253 µM): 1.03 | relative viability ([8]; first compound 0.8 µM): 1.09 | relative viability ([8]; first compound 2.53 µM): 0.974 | relative viability ([8]; first compound 8 µM): 1.16 | relative viability ([9]; first compound 0.08 µM): 0.947 | relative viability ([9]; first compound 0.253 µM): 1.17 | relative viability ([9]; first compound 0.8 µM): 1.09 | relative viability ([9]; first compound 2.53 µM): 0.902 | relative viability ([9]; first compound 8 µM): 1.73 | relative viability ([10]; first compound 0.08 µM): 1.07 | relative viability ([10]; first compound 0.253 µM): 1.27 | relative viability ([10]; first compound 0.8 µM): 1.22 | relative viability ([10]; first compound 2.53 µM): 1 | relative viability ([10]; first compound 8 µM): 1.16 | relative viability ([11]; first compound 0.08 µM): 0.976 | relative viability ([11]; first compound 0.253 µM): 1.13 | relative viability ([11]; first compound 0.8 µM): 1.09 | relative viability ([11]; first compound 2.53 µM): 1.05 | relative viability ([11]; first compound 8 µM): 1.09 | relative viability ([12]; first compound 0.08 µM): 1.12 | relative viability ([12]; first compound 0.253 µM): 1.18 | relative viability ([12]; first compound 0.8 µM): 1.16 | relative viability ([12]; first compound 2.53 µM): 1.2 | relative viability ([12]; first compound 8 µM): 1.91 | relative viability ([13]; first compound 0.08 µM): 1.13 | relative viability ([13]; first compound 0.253 µM): 1.13 | relative viability ([13]; first compound 0.8 µM): 1.12 | relative viability ([13]; first compound 2.53 µM): 1.1 | relative viability ([13]; first compound 8 µM): 1.2 | relative viability ([14]; first compound 0.08 µM): 0.978 | relative viability ([14]; first compound 0.253 µM): 1.3 | relative viability ([14]; first compound 0.8 µM): 1.04 | relative viability ([14]; first compound 2.53 µM): 0.85 | relative viability ([14]; first compound 8 µM): 1.57 | relative viability ([15]; first compound 0.08 µM): 0.875 | relative viability ([15]; first compound 0.253 µM): 0.801 | relative viability ([15]; first compound 0.8 µM): 0.886 | relative viability ([15]; first compound 2.53 µM): 0.818 | relative viability ([15]; first compound 8 µM): 1.12 | relative viability ([16]; first compound 0.08 µM): 0.461 | relative viability ([16]; first compound 0.253 µM): 0.48 | relative viability ([16]; first compound 0.8 µM): 0.355 | relative viability ([16]; first compound 2.53 µM): 0.482 | relative viability ([16]; first compound 8 µM): 0.525 | relative viability ([17]; first compound 0.08 µM): 0.425 | relative viability ([17]; first compound 0.253 µM): 0.419 | relative viability ([17]; first compound 0.8 µM): 0.319 | relative viability ([17]; first compound 2.53 µM): 0.367 | relative viability ([17]; first compound 8 µM): 0.384 | relative viability ([18]; first compound 0.253 µM): 1.4 | relative viability ([18]; first compound 0.8 µM): 1.05 | relative viability ([18]; first compound 2.53 µM): 0.904 | relative viability ([18]; first compound 8 µM): 1.27 | relative viability ([19]; first compound 0.08 µM): 0.994 | relative viability ([19]; first compound 0.253 µM): 0.976 | relative viability ([19]; first compound 0.8 µM): 1.08 | relative viability ([19]; first compound 2.53 µM): 0.988 | relative viability ([19]; first compound 8 µM): 1.03

— the supplement of paper PMC10307832
